Assay results reported in patent US6716428B1, “Antigenic modification of polypeptides” (The Ohio State University Research Foundation, priority 1999, dated 2004).
Like-named read-outs stand apart in the source and are kept apart here. Ends that are not written are not given here.

Columns and labels:
[1] = system: peptide used in the conjugate (Structure (II), (XII), (XIV), (X)); assay: Antibody level to the peptide of the conjugate in immunized mice (^125I antigen, double antibody technique); assay type: in vivo; details: 52 days
[2] = system: HCG; assay: Antibody level to HCG in immunized mice (^125I antigen, double antibody technique); assay type: in vivo; details: 52 days
[3] = system: HCG; assay type: in vivo, rabbit
[4] = system: Friends' Leukemia Virus; assay: Survival of immunized SJL/J mice inoculated with Friends' Leukemia Virus; assay type: in vivo; parameters: concentration or dose not given beside the values
Description: The mice used in this experiment were six-week old female mice of SJL/J strain. A test group and a control group, each containing approximately 20 mice were selected at random and were immunized in the same manner as in Example XXXVI above, the test animals receiving the vaccine containing the peptide/diphtheria toxoid conjugate and the control group receiving the vaccine containing only the vehicle. However, in this experiment a different immunization schedule was followed: the original immunization was followed by booster immunizations 4, 9, 20 and 29 weeks later. Six weeks after the first immunization (i.e. two weeks after the second immunization) each mouse was injected with approximately 1 million Friends' Leukemia Virus and the mice were observed daily for deaths.

[5] = system: Ridgeway Osteogenic Sarcoma; assay: Growth of Ridgeway Osteogenic Sarcoma in immunized AKR mice; assay type: in vivo
Description: Sixty mice of the AKR strain were divided at random into a test group and a control group each comprising 30 mice. The test group were then immunized in the same manner as in Examples XXXVI and XXXVII with a vaccine comprising the same conjugate as in those Examples dissolved in Freund's Complete Adjuvant, while the control group simply received the Freund's Adjuvant. Booster Immunizations were given to each group three and seven weeks after the first immunization. […] In the mice in which the tumor survived, tumor volume measurements were made 22, 26, 29, 31, 33, 38, 40 and 43 days after innoculation with the Sarcoma. […] Nevertheless, the results in Table 27 do show a significant reduction in the rate of tumor growth in the conjugate-immunized mice.

[6] = system: female baboons; assay: Fertility rates (matings and pregnancies) of immunized female baboons; assay type: in vivo, baboon; details: female baboons

Compound: CC(=O)N[C@H]1C(O)O[C@H](CO)[C@@H](O)[C@@H]1OCC(=O)N[C@@H](C)C(=O)N[C@H](CCC(=O)O)C(N)=O (stereo partly shown) [CGP 11637, NAc-nor Mur-L. Ala-D. iso Gln]
- Antibody level to Structure (XII) [1]: 70.9 ng/mL
- Antibody level to Structure (XII) ([1]; C3H/He mice, same conjugate): 84.0 ng/mL
- Antibody level to Structure (XII) ([1]; DBA/1 mice, same conjugate): 42.5 ng/mL
- Antibody level to Structure (XII) ([1]; SJL mice, same conjugate): 60.1 ng/mL
- Antibody level to CG [2]: 18.3 ng/mL
- Antibody level to CG ([2]; C3H/He mice, same conjugate): 21.5 ng/mL
- Antibody level to CG ([2]; DBA mice, same conjugate): 10.6 ng/mL
- Antibody level to CG ([2]; SJL mice, same conjugate): 13.8 ng/mL
- Mean Antibody Level-^125I-HCG ([3]; as E193, 4 weeks): 177.8 M/L × 10^10
- Mean Antibody Level-^125I-HCG ([3]; as E193, 5 weeks): 211.9 M/L × 10^10
- Mean Antibody Level-^125I-HCG ([3]; as E193, 6 weeks): 297.2 M/L × 10^10
- Mean Antibody Level-^125I-HCG ([3]; as E193, 7 weeks): 381.2 M/L × 10^10
- Mean Antibody Level-^125I-HCG ([3]; as E193, 8 weeks): 418.6 M/L × 10^10
- Mean Antibody Level-^125I-HCG ([3]; as E193, 9 weeks): 480.0 M/L × 10^10
- Mean Antibody Level-^125I-HCG ([3]; as E193, 10 weeks): 708.6 M/L × 10^10
- Mean Antibody Level-^125I-HCG ([3]; as E193, 11 weeks): 628.5 M/L × 10^10
- Mean Antibody Level-^125I-HCG ([3]; as E193, 12 weeks): 398.5 M/L × 10^10
- HCG antibody levels compared with rabbits receiving adjuvants CGP 16940 and 12908 ([3]; in vivo): significantly greater
- Mean Antibody Level-^125I-HCG ([3]; in vivo): 16.3 M/L × 10^10

Compound: CCC(NC(=O)COC1C(O)C(CO)OC(O)C1NC(C)=O)C(=O)NC(CCC(=O)O)C(N)=O [CGP 14767, NAc-nor-Mur-L-Abu-D.isoGln]
- Antibody level to Structure (XII) [1]: 53.0 ng/mL
- Antibody level to Structure (XII) ([1]; C3H/He mice, same conjugate): 74.9 ng/mL
- Antibody level to Structure (XII) ([1]; DBA/1 mice, same conjugate): 22.2 ng/mL
- Antibody level to Structure (XII) ([1]; SJL mice, same conjugate): 91.6 ng/mL
- Antibody level to CG [2]: 21.0 ng/mL
- Antibody level to CG ([2]; C3H/He mice, same conjugate): 21.4 ng/mL
- Antibody level to CG ([2]; DBA mice, same conjugate): 11.1 ng/mL
- Antibody level to CG ([2]; SJL mice, same conjugate): 5.4 ng/mL

Compound: CCCCCCCCCCCCCCCCCC(=O)OCC1OC(O)C(NC(C)=O)C(OC(C)C(=O)NC(C)C(=O)NC(CCC(=O)O)C(N)=O)C1O (stereo not shown) [CGP 18177, NAc-Mur (6-0-stearoyl)-LAla-D.isoGln]
- Mean Antibody Level-^125I-HCG ([3]; as E193, 4 weeks): 215.1 M/L × 10^10
- Mean Antibody Level-^125I-HCG ([3]; as E193, 5 weeks): 204.6 M/L × 10^10
- Mean Antibody Level-^125I-HCG ([3]; as E193, 6 weeks): 218.2 M/L × 10^10
- Mean Antibody Level-^125I-HCG ([3]; as E193, 7 weeks): 441.9 M/L × 10^10
- Mean Antibody Level-^125I-HCG ([3]; as E193, 8 weeks): 544.9 M/L × 10^10
- Mean Antibody Level-^125I-HCG ([3]; as E193, 9 weeks): 456.2 M/L × 10^10
- Mean Antibody Level-^125I-HCG ([3]; as E193, 10 weeks): 631.0 M/L × 10^10
- Mean Antibody Level-^125I-HCG ([3]; as E193, 11 weeks): 584.0 M/L × 10^10
- Mean Antibody Level-^125I-HCG ([3]; as E193, 12 weeks): 270.0 M/L × 10^10
- Mean Antibody Level-^125I-HCG ([3]; in vivo): 19.9 M/L × 10^10

Compound: CCCCCCCCCCCCCCCCCC(=O)OCC1OC(O)C(NC(C)=O)C(OCC(=O)NC(C)C(=O)NC(CCC(=O)O)C(N)=O)C1O (stereo not shown) [CGP 18741, NAc-ner-Mur (6-0-stearoyl)-L.Ala-D.isoGln]
- Mean Antibody Level-^125I-HCG ([3]; as E193, 4 weeks): 9.8 M/L × 10^10
- Mean Antibody Level-^125I-HCG ([3]; as E193, 5 weeks): 6.2 M/L × 10^10
- Mean Antibody Level-^125I-HCG ([3]; as E193, 6 weeks): 8.9 M/L × 10^10
- Mean Antibody Level-^125I-HCG ([3]; as E193, 7 weeks): 81.1 M/L × 10^10
- Mean Antibody Level-^125I-HCG ([3]; as E193, 8 weeks): 75.4 M/L × 10^10
- Mean Antibody Level-^125I-HCG ([3]; as E193, 9 weeks): 74.9 M/L × 10^10
- Mean Antibody Level-^125I-HCG ([3]; as E193, 10 weeks): 121.8 M/L × 10^10
- Mean Antibody Level-^125I-HCG ([3]; as E193, 11 weeks): 156.8 M/L × 10^10
- Mean Antibody Level-^125I-HCG ([3]; as E193, 12 weeks): 97.6 M/L × 10^10
- Mean Antibody Level-^125I-HCG ([3]; in vivo): 5.9 M/L × 10^10

Compound: Conjugate (TCDDPRFQDSSSSKAPPPSLPSPSRLPGPSDTPILPQ; also: conjugated to foreign carrier; listed as Homo sapiens)
- Survival Rate - % ([4]; 0 days after inoculation with Friends' Leukemia Virus): 100.0%
- Survival Rate - % ([4]; 22 days after inoculation): 100.0%
- Survival Rate - % ([4]; 29 days after inoculation): 100.0%
- Survival Rate - % ([4]; 98 days after inoculation (day of booster immunization)): 100.0%
- Survival Rate - % ([4]; 160 days after inoculation): 100.0%
- Survival Rate - % ([4]; 163 days after inoculation (day of booster immunization)): 100.0%
- Survival Rate - % ([4]; 166 days after inoculation): 100.0%
- Survival Rate - % ([4]; 175 days after inoculation): 100.0%
- Survival Rate - % ([4]; 180 days after inoculation): 100.0%
- Mean Tumor Volume - cm^3 ([5]; day 22 of tumor growth): 0.65 cm^3
- Mean Tumor Volume - cm^3 ([5]; day 26 of tumor growth): 0.68 cm^3
- Mean Tumor Volume - cm^3 ([5]; day 29 of tumor growth): 1.20 cm^3
- Mean Tumor Volume - cm^3 ([5]; day 31 of tumor growth): 2.24 cm^3
- Mean Tumor Volume - cm^3 ([5]; day 33 of tumor growth): 3.04 cm^3
- Mean Tumor Volume - cm^3 ([5]; day 36 of tumor growth): 3.14 cm^3
- Mean Tumor Volume - cm^3 ([5]; day 38 of tumor growth): 4.40 cm^3
- Mean Tumor Volume - cm^3 ([5]; day 40 of tumor growth): 5.54 cm^3
- Mean Tumor Volume - cm^3 ([5]; day 43 of tumor growth): 5.00 cm^3
- Fertility Rate (%) ([6]; mating cycle 1): 0%
- No. Pregnant ([6]; mating cycle 1): 0
- Fertility Rate (%) ([6]; mating cycle 2): 6.7%
- No. Pregnant ([6]; mating cycle 2): 1
- Fertility Rate (%) ([6]; mating cycle 3): 7.1%
- No. Pregnant ([6]; mating cycle 3): 1
- Fertility Rate (%) ([6]; totals of mating cycles 1-3): 4.6%
- No. Pregnant ([6]; totals of mating cycles 1-3): 2
